Test results from patent publication US20260015350A1, “AZAQUINAZOLINE PAN-KRAS INHIBITORS” (Mirati Therapeutics, Inc., priority 2022, published 2026).

Tests used:
[1] = tested on: KRas-mediated phosphorylation of ERK in A549 cells; assay: Inhibition of KRas-mediated phosphorylation of ERK (Cisbio HTRF pERK), A549 cells; format: cell-based; details: Homo sapiens, HTRF pERK
Outline: (§1)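 6,000 cells/well; cpd 10 uM top, 3-fold x10, 0.8% DMSO final; 3 hr incubation; Min ctrl Trametinib 0.2 uM; lysis 40 min 4° C shaking; d2 + Cryptate Ab mix, 2 hr RT; HTRF read.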

[2] = tested on: KRas-mediated phosphorylation of ERK in PSN1 cells; assay: Inhibition of KRas-mediated phosphorylation of ERK (Cisbio HTRF pERK), PSN1 cells; format: cell-based; details: Homo sapiens
Outline: (§2)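 HTRF pERK read-out; 6,000 cells/well, RPMI_10% FBS, overnight 37° C./5% CO2; 4 h covered incubation at RT before reading.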

[3] = tested on: KRas-mediated phosphorylation of ERK in H727 cells; assay: Inhibition of KRas-mediated phosphorylation of ERK (Cisbio HTRF pERK), H727 cells; format: cell-based; details: Homo sapiens, NCI-H727, H727 cells; HTRF pERK
Outline: (§3)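 H358, H727, H460 and AsPC-1 cells seeded at 6,000/well, treated 3 hrs with 10-dose 3-fold dilutions from 10 uM (0.8% DMSO); 0.2 uM trametinib as min control. Lysed 40 min at 4° C; lysate incubated 2 hrs at room temperature with d2/cryptate antibodies, HTRF read.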

[4] = molecular target: T1, KRas^G12V (Homo sapiens, UniProt P01116, G12V); assay: KRas binding assay (TR-FRET tracer displacement), KRas G12V
T1 construct: Biotinylated KRas (corresponding to amino acids 1-169, produced at Accelegan Inc.); biotin (biotinylated); purchased Accelegan Inc

[5] = tested on: KRas-mediated phosphorylation of ERK in H460 cells; assay: Inhibition of KRas-mediated phosphorylation of ERK (Cisbio HTRF pERK), H460 cells; format: cell-based; details: Homo sapiens, NCI-H460, HTRF pERK
Outline: as §3

[6] = molecular target: T2, KRas^G12R (Homo sapiens, UniProt P01116, G12R); assay: KRas binding assay (TR-FRET tracer displacement), KRas G12R
T2 construct: Biotinylated KRas (corresponding to amino acids 1-169, produced at Accelegan Inc.); biotin (biotinylated); purchased Accelegan Inc

[7] = tested on: KRas-mediated phosphorylation of ERK in HCT116 cells; assay: Inhibition of KRas-mediated phosphorylation of ERK (Cisbio HTRF pERK), HCT116 cells; format: cell-based; details: Homo sapiens, HCT-116, HTRF pERK
Outline: as §1

[8] = tested on: KRas-mediated phosphorylation of ERK in H358 cells; assay: Inhibition of KRas-mediated phosphorylation of ERK (Cisbio HTRF pERK), H358 cells; format: cell-based; details: Homo sapiens, NCI-H358, HTRF pERK
Outline: as §3

[9] = tested on: KRas-mediated phosphorylation of ERK in AsPC-1 cells; assay: Inhibition of KRas-mediated phosphorylation of ERK (Cisbio HTRF pERK), AsPC-1 cells; format: cell-based; details: Homo sapiens, ASPC1, AsPC-1 cells; HTRF pERK
Outline: as §3

[10] = molecular target: T3, KRas^G12D (Homo sapiens, UniProt P01116, G12D); assay: KRas binding assay (TR-FRET tracer displacement), KRas G12D
T3 construct: Biotinylated KRas (corresponding to amino acids 1-169, produced at Accelegan Inc.); biotin (biotinylated); purchased Accelegan Inc

[11] = tested on: KRas-mediated phosphorylation of ERK in H2009 cells; assay: Inhibition of KRas-mediated phosphorylation of ERK (Cisbio HTRF pERK), H2009 cells; format: cell-based; details: Homo sapiens, NCI-H2009
Experimental: Inhibition of KRas Phosphorylation of ERK (HTRF) by Exemplary Compounds of Formula (I)
Cisbio HTRF Advanced PERK Assay Catalog #64AERPEH
1. To harvest cells from flask using 0.05% Trypsin/EDTA solution. Add 10 mL of media to stop trypsinizing. Pipette the cells into a conical bottom 50 mL centrifuge tube and centrifuge 5 min×1000 rpm.
2. Re-suspend the cell pellet in media, take a cell count, and then adjust the cell density using fresh media.
3. Seed 6,000 cells into cell culture plate with 50 μL media. […]
4. Incubate cell plate overnight in a 37° C., 5% CO2 incubator.
1. Use Tecan to complete the compound addition. Compounds start from 10 uM top, 3-fold dilution, and 10 doses. The final DMSO concentration is 0.8%. Dispensed 0.2 uM Trametinib as Min control.
2. Incubate cell plate for 3 hrs in the incubator.
Detection with Cisbio pERK HTRF Kit
1. Dilute 1 volume of 4× lysis buffer with 3 volumes of deionized water. Then, add 100× the blocking reagent. Keep lysis buffer on the ice.
2. At the end of the compound treatment, flick-off the media.
3. Add 35 μL of lysis buffer per well using a Multidrop Combi. Then place on a plate agitator shaking at 300 rpm at 4° C. for 40 mins.
4. Make up the HTRF antibody buffer. For each assay plate, mix 50 μL of d2-conjugate antibody with 950 μL of detection buffer. Similarly, mix 50 μL of Cryptate antibody with 950 μL of detection buffer. Then mix the two diluted antibodies together.
5. Dispense 3.4 μL the antibody buffer to wells of an empty assay plate. Seal the plate and centrifuge plate 30 sec×1000 rpm.
6. At the end of the 4° C. lysis, centrifuge the lysate plates 3 mins×1500 rpm.
7. Use the Bravo to transfer 13.6 μL of lysate from cell culture plate to assay plate. Then incubate assay plate for 2 hrs at room temperature.
8. At the end of incubation, read plate on the Envision after centrifuging plate 30 sec×1000 rpm.

[12] = tested on: KRas-mediated phosphorylation of ERK in MKN1 cells; assay: Inhibition of KRas-mediated phosphorylation of ERK (Cisbio HTRF pERK), MKN1 cells; format: cell-based; details: Homo sapiens, MKN-1
Outline: as §2

[13] = molecular target: T4, KRas^G12S (Homo sapiens, UniProt P01116, G12S); assay: KRas binding assay (TR-FRET tracer displacement), KRas G12S; details: TR-FRET tracer displacement, KRas G12S
T4 construct: Biotinylated KRas (corresponding to amino acids 1-169, produced at Accelegan Inc.); biotin (biotinylated); purchased Accelegan Inc

[14] = molecular target: T5, KRas^G12C (Homo sapiens, UniProt P01116, G12C); assay: KRas binding assay (TR-FRET tracer displacement), KRas G12C; details: TR-FRET tracer displacement, KRas G12C
T5 construct: Biotinylated KRas (corresponding to amino acids 1-169, produced at Accelegan Inc.); biotin (biotinylated); purchased Accelegan Inc

[15] = molecular target: T6, KRas^WT (Homo sapiens, UniProt P01116); assay: KRas binding assay (TR-FRET tracer displacement), KRas WT; details: TR-FRET tracer displacement, KRas WT
T6 construct: Biotinylated KRas (corresponding to amino acids 1-169, produced at Accelegan Inc.); biotin (biotinylated); purchased Accelegan Inc
T6 sequence (P01116 1-169 isoform P01116-2): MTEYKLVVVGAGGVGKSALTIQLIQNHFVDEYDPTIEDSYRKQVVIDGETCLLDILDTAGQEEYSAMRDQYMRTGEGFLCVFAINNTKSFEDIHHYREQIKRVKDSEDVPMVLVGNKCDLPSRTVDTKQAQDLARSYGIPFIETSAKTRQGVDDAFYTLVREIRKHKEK

T5 sequence (P01116 1-169 isoform P01116-2 G12C): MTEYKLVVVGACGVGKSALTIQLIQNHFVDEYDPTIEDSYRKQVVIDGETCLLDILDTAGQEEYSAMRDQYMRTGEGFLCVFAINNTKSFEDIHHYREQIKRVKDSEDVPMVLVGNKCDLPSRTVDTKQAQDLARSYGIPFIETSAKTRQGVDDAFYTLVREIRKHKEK
T1 sequence (P01116 1-169 isoform P01116-2 G12V): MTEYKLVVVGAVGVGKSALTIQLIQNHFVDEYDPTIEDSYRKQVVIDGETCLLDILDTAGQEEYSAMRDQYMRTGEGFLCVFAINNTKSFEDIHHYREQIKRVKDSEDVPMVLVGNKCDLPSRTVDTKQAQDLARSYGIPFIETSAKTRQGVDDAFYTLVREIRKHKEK
T3 sequence (P01116 1-169 isoform P01116-2 G12D): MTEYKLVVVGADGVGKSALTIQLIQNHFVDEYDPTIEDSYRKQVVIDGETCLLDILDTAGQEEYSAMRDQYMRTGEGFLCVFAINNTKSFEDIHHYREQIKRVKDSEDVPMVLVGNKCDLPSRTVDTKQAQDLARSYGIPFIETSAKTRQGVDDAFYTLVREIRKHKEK
T4 sequence (P01116 1-169 isoform P01116-2 G12S): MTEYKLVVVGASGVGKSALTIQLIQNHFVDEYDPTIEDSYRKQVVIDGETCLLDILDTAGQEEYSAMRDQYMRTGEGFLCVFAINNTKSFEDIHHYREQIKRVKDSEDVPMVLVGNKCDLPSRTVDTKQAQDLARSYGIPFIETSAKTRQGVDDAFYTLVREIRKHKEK
T2 sequence (P01116 1-169 isoform P01116-2 G12R): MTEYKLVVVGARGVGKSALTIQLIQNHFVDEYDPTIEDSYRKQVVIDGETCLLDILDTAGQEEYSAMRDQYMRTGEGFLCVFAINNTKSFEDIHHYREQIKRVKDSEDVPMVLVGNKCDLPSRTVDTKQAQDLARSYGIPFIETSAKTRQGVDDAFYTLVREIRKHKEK

Structure (SMILES)	IC50 [1] [nM]	IC50 [2] [nM]	IC50 [3] [nM]	IC50 [4] [nM]	IC50 [5] [nM]	IC50 [6] [nM]	IC50 [7] [nM]	IC50 [8] [nM]	IC50 [9] [nM]	IC50 [10] [nM]	IC50 [11] [nM]	IC50 [12] [nM]	IC50 [13] [nM]	IC50 [14] [nM]	IC50 [15] [nM]
CCc1c(F)ccc2cc(O)cc(-c3ncc4c(N5CCC[C@@](C)(O)C5)nc(OC[C@@]56CCCN5C/C(=C\F)C6)nc4c3F)c12 [Example 791, (R)-1-(7-(8-ethyl-7-fluoro-3-hydroxynaphthalen-1-yl)-8-fluoro-2-(((S,Z)-2-(fluoromethylene)tetrahydro-1H-pyrrolizin-7a(5H)-yl)methoxy)pyrido[4,3-d]pyrimidin-4-yl)-3-methylpiperidin-3-ol]	1	80	2	< 2	1	< 2	2	1	1	< 2	1	0.1	–	–	–
C[C@@H]1C[C@@H]1c1c(Cl)cc(O)cc1-c1ncc2c(N3CC4CCC(C3)N4)nc(OC[C@@]34CCCN3C/C(=C\F)C4)nc2c1F [Example 806, 3-(4-(3,8-diazabicyclo[3.2.1]octan-3-yl)-8-fluoro-2-(((S,Z)-2-(fluoromethylene)tetrahydro-1H-pyrrolizin-7a(5H)-yl)methoxy)pyrido[4,3-d]pyrimidin-7-yl)-5-chloro-4-(cis-2-methylcyclopropyl)phenol]	139	–	364	4	107	–	129	43	2	< 2	29	19	2	3	4

Further lines, results first:

IC50 [1] [nM]	IC50 [2] [nM]	IC50 [3] [nM]	IC50 [4] [nM]	IC50 [5] [nM]	IC50 [6] [nM]	IC50 [7] [nM]	IC50 [8] [nM]	IC50 [9] [nM]	IC50 [10] [nM]	IC50 [11] [nM]	IC50 [12] [nM]	IC50 [13] [nM]	IC50 [14] [nM]	IC50 [15] [nM]	Structure (SMILES)
3	–	4	< 2	4	–	7	1	9	< 2	1	0.2	< 2	< 2	< 2	C/C=C1\CN2CCCC2(COc2nc(N3C[C@@H]4C[C@H](C3)[C@H](O)C4)c3cnc(-c4cc(O)cc5ccc(F)c(CC)c45)c(F)c3n2)C1 (stereo partly drawn) [Example 938, (1R,5R,6R)-3-(7-(8-ethyl-7-fluoro-3-hydroxynaphthalen-1-yl)-2-(((Z)-2-ethylidenetetrahydro-1H-pyrrolizin-7a(5H)-yl)methoxy)-8-fluoropyrido[4,3-d]pyrimidin-4-yl)-3-azabicyclo[3.2.1]octan-6-ol]
2	–	2	< 2	2	–	3	1	1	< 2	1	0.1	< 2	< 2	< 2	C=C1CN2CCCC2(COc2nc(N3CCCC4(CCO4)C3)c3cnc(-c4cc(O)cc5ccc(F)c(CC)c45)c(F)c3n2)C1 (stereo not drawn) [Example 941, 5-ethyl-6-fluoro-4-(8-fluoro-2-((2-methylenetetrahydro-1H-pyrrolizin-7a(5H)-yl)methoxy)-4-(1-oxa-6-azaspiro[3.5]nonan-6-yl)pyrido[4,3-d]pyrimidin-7-yl)naphthalen-2-ol]
6	–	6	< 2	3	–	6	1	2	< 2	1	–	< 2	< 2	< 2	C[C@@H]1C[C@@H]1c1c(Cl)cc(O)cc1-c1ncc2c(N3CCC[C@@](C)(O)C3)nc(OC[C@@]34CCCN3C/C(=C\F)C4)nc2c1F [Example 944, (R)-1-(7-(3-chloro-5-hydroxy-2-((1S,2R)-2-methylcyclopropyl)phenyl)-8-fluoro-2-(((S,Z)-2-(fluoromethylene)tetrahydro-1H-pyrrolizin-7a(5H)-yl)methoxy)pyrido[4,3-d]pyrimidin-4-yl)-3-methylpiperidin-3-ol]
